Experimental data as given in US20250121078A1, “PEPTIDE DRUG CONJUGATES AND THEIR USES” (priority 2023, published 2025).
Where a SMILES comes first, the peptide text is derived from it. [ ]: non-standard residue; d: D form. The star is where a group is joined. Paclitaxel(2'-O-succinyl) = CC(=O)O[C@H]1C(=O)[C@@]2(C)[C@H]([C@H](OC(=O)c3ccccc3)[C@]3(O)C[C@H](OC(=O)[C@H](OC(=O)CCC(=O)*)[C@@H](NC(=O)c4ccccc4)c4ccccc4)C(C)=C1C3(C)C)[C@]1(OC(C)=O)CO[C@@H]1C[C@@H]2O; Propanoyl(3-SS-DM1) = COc1cc2cc(c1Cl)N(C)C(=O)C[C@H](OC(=O)[C@H](C)N(C)C(=O)CCSSCCC(=O)*)[C@]1(C)O[C@H]1[C@H](C)[C@@H]1C[C@@](O)(NC(=O)O1)[C@H](OC)/C=C/C=C(\C)C2; d(hArg(Et2)) = CCN=C(NCC)NCCCC[C@@H](N)C(=O)O; hArg(Et2) = CCN=C(NCC)NCCCC[C@H](N)C(=O)O; dPhe(4-Cl) = N[C@H](Cc1ccc(Cl)cc1)C(=O)O; d2Nal = N[C@H](Cc1ccc2ccccc2c1)C(=O)O; dCit = NC(=O)NCCC[C@@H](N)C(=O)O; d3Pal = N[C@H](Cc1cccnc1)C(=O)O

biological target: T1, LHRHR, also known as GnRHR (Homo sapiens, UniProt P30968); assay: Radioligand binding assay ([125I]-[D-Trp6]-LHRH displacement); settings: not given
T1 sequence (P30968 1-328): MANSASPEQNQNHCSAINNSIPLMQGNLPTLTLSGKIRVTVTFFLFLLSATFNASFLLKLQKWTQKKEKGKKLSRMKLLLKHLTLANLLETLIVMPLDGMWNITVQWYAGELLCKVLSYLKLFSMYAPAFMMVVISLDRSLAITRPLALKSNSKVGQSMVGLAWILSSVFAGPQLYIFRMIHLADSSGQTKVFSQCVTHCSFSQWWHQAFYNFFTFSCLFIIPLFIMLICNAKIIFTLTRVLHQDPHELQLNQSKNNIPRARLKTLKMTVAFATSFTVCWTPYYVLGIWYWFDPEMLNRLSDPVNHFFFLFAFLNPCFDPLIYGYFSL
Description: An amount of 2 μg of a purified membrane with LHRHR, also known as GnRHR, was incubated with 0.18 nM [125I]-[D-Trp6]-LHRH and compounds of interest in the incubation buffer (50 mM HEPES, pH 7.4, 5 mM MgCl2, 1 mM CaCl2, and 0.2% BSA). The reaction mixtures were incubated for 1 h at 25° C. and then were transferred to a 96-well GF/B filter plate (Millipore Corp., Billerica, MA, USA), which were terminated by manifold filtration and washed with a wash buffer (50 mM HEPES, pH 7.4, and 100 mM NaCl) for six times. The radioactivity bound to the filter was measured by a Topcount® system (PerkinElmer Inc., Waltham, MA, USA). IC50 values were determined by the concentration of a compound required to inhibit 50% of the specific binding of [125I]-[D-Trp6]-LHRH and calculated by nonlinear regression (GraphPad Software, San Diego, CA, USA). The design of these drug conjugates is to actively targeting LHRH-receptor at tumor site and facilitate drug conjugate accumulation in situ. Therefore, selective and strong binding of the synthetic peptide ligand with the receptor is important to allow enrichment of these conjugates, followed by release of the drug payload in the tumor microenvironment.
Compounds of the invention have a binding as low as 0.17 nM.

Row | SMILES | IC50 [nM]
1 | CCNC(=NCCCC[C@H](NC(=O)[C@H](CC(C)C)NC(=O)[C@@H](CCCCNC(=O)CCSSCCC(=O)N(C)[C@@H](C)C(=O)O[C@H]1CC(=O)N(C)c2cc(cc(OC)c2Cl)C/C(C)=C/C=C/[C@@H](OC)[C@@]2(O)C[C@H](OC(=O)N2)[C@@H](C)[C@@H]2O[C@@]12C)NC(=O)[C@H](Cc1ccc(O)cc1)NC(=O)[C@H](CO)NC(=O)[C@@H](Cc1cccnc1)NC(=O)[C@@H](Cc1ccc(Cl)cc1)NC(=O)[C@@H](Cc1ccc2ccccc2c1)NC(C)=O)C(=O)N1CCC[C@H]1C(=O)N[C@H](C)C(N)=O)NCC [Compound 23] (Ac-[d2Nal][dPhe(4-Cl)][d3Pal]SY[dK](Propanoyl(3-SS-DM1))L[hArg(Et2)]P[dA]-NH2) | 0.1 to 1
2 | COc1cc2cc(c1Cl)N(C)C(=O)C[C@H](OC(=O)[C@H](C)N(C)C(=O)CCSC(=O)OCc1ccc(O[Si](OCCCn3nnc4c3CC[C@@H]3[C@H](CC4)[C@H]3COC(=O)N(CCCC[C@H](NC(=O)[C@H](CC(C)C)NC(=O)[C@@H](Cc3ccc(NC(N)=O)cc3)NC(=O)[C@H](Cc3ccc(NC(=O)[C@@H]4CC(=O)NC(=O)N4)cc3)NC(=O)[C@H](CO)NC(=O)[C@@H](Cc3cccnc3)NC(=O)[C@@H](Cc3ccc(Cl)cc3)NC(=O)[C@@H](Cc3ccc4ccccc4c3)NC(C)=O)C(=O)N3CCC[C@H]3C(=O)N[C@H](C)C(N)=O)C(C)C)(C(C)C)C(C)C)cc1)[C@]1(C)O[C@H]1[C@H](C)[C@@H]1C[C@@](O)(NC(=O)O1)[C@H](OC)/C=C/C=C(\C)C2 [Compound 19] | 1 to 10
3 | COc1cc2cc(c1Cl)N(C)C(=O)C[C@H](OC(=O)[C@H](C)N(C)C(=O)CCSSCCC(=O)NCCCC[C@@H](NC(=O)[C@H](Cc1ccc(O)cc1)NC(=O)[C@H](CO)NC(=O)[C@@H](Cc1cccnc1)NC(=O)[C@@H](Cc1ccc(Cl)cc1)NC(=O)[C@@H](Cc1ccc3ccccc3c1)NC(C)=O)C(=O)N[C@@H](CC(C)C)C(=O)N[C@H](CCCNC(=N)N)C(=O)N1CCC[C@H]1C(=O)N[C@H](C)C(N)=O)[C@]1(C)O[C@H]1[C@H](C)[C@@H]1C[C@@](O)(NC(=O)O1)[C@H](OC)/C=C/C=C(\C)C2 [Compound 24] (Ac-[d2Nal][dPhe(4-Cl)][d3Pal]SY[dK](Propanoyl(3-SS-DM1))L[dR]P[dA]-NH2) | 1 to 10

same assay, conditions: purified membrane with LHRHR, 0.18 nM [125I]-[D-Trp6]-LHRH, 1 h at 25° C.; read-out: Binding Assay

Row | IC50 [nM] | SMILES
4 | > 100 | CCNC(=NCCCC[C@@H](NC(=O)[C@H](Cc1ccc(O)cc1)NC(=O)[C@H](CO)NC(=O)[C@@H](Cc1cccnc1)NC(=O)[C@@H](Cc1ccc(Cl)cc1)NC(=O)[C@@H](Cc1ccc2ccccc2c1)NC(C)=O)C(=O)N[C@H](CCCCN)C(=O)N[C@H](CCCCN=C(NCC)NCC)C(=O)N1CCC[C@H]1C(=O)N[C@H](C)C(N)=O)NCC [Compound 5] (Ac-[d2Nal][dPhe(4-Cl)][d3Pal]SY[d(hArg(Et2))][dK][d(hArg(Et2))]P[dA]-NH2)
5 | 0.1 to 1 | CC(=O)N[C@H](Cc1ccc2ccccc2c1)C(=O)N[C@H](Cc1ccc(Cl)cc1)C(=O)N[C@H](Cc1cccnc1)C(=O)N[C@@H](CO)C(=O)N[C@@H](Cc1ccc(O)cc1)C(=O)N[C@H](CCCCN)C(=O)N[C@@H](CC(C)C)C(=O)N[C@@H](CCCNC(=N)N)C(=O)N1CCC[C@H]1C(=O)N[C@H](C)C(N)=O [Compound 2] (Ac-[d2Nal][dPhe(4-Cl)][d3Pal]SY[dK]LRP[dA]-NH2)
6 | 10 to 100 | CC(=O)N[C@H](Cc1ccc2ccccc2c1)C(=O)N[C@H](Cc1ccc(Cl)cc1)C(=O)N[C@H](Cc1cccnc1)C(=O)N[C@@H](CO)C(=O)N[C@@H](Cc1ccc(O)cc1)C(=O)N[C@H](CCCNC(N)=O)C(=O)N[C@H](CCCCN)C(=O)N[C@@H](CCCNC(=N)N)C(=O)N1CCC[C@H]1C(=O)N[C@H](C)C(N)=O [Compound 3] (Ac-[d2Nal][dPhe(4-Cl)][d3Pal]SY[dCit][dK]RP[dA]-NH2)
7 | > 100 | CCNC(=NCCCC[C@@H](NC(=O)[C@H](CCCCN)NC(=O)[C@H](CO)NC(=O)[C@@H](Cc1cccnc1)NC(=O)[C@@H](Cc1ccc(Cl)cc1)NC(=O)[C@@H](Cc1ccc2ccccc2c1)NC(C)=O)C(=O)N[C@@H](CC(C)C)C(=O)N[C@H](CCCCN=C(NCC)NCC)C(=O)N1CCC[C@H]1C(=O)N[C@H](C)C(N)=O)NCC [Compound 4] (Ac-[d2Nal][dPhe(4-Cl)][d3Pal]SK[d(hArg(Et2))]L[d(hArg(Et2))]P[dA]-NH2)
8 | 10 to 100 | CC(=O)N[C@H](Cc1ccc2ccccc2c1)C(=O)N[C@H](Cc1ccc(Cl)cc1)C(=O)N[C@H](Cc1cccnc1)C(=O)N[C@@H](CO)C(=O)N[C@@H](Cc1ccc(O)cc1)C(=O)N[C@H](CCCCN)C(=O)N[C@@H](CC(C)C)C(=O)N[C@H](CCCNC(=N)N)C(=O)N1CCC[C@H]1C(=O)N[C@H](C)C(N)=O [Compound 13] (Ac-[d2Nal][dPhe(4-Cl)][d3Pal]SY[dK]L[dR]P[dA]-NH2)
9 | 0.1 to 1 | CCNC(=NCCCC[C@H](NC(=O)[C@H](CC(C)C)NC(=O)[C@@H](CCCCN)NC(=O)[C@H](Cc1ccc(O)cc1)NC(=O)[C@H](CO)NC(=O)[C@@H](Cc1cccnc1)NC(=O)[C@@H](Cc1ccc(Cl)cc1)NC(=O)[C@@H](Cc1ccc2ccccc2c1)NC(C)=O)C(=O)N1CCC[C@H]1C(=O)N[C@H](C)C(N)=O)NCC [Compound 12] (Ac-[d2Nal][dPhe(4-Cl)][d3Pal]SY[dK]L[hArg(Et2)]P[dA]-NH2)
10 | > 100 | CC(=O)N[C@H](Cc1ccc2ccccc2c1)C(=O)N[C@H](Cc1ccc(Cl)cc1)C(=O)N[C@H](Cc1cccnc1)C(=O)N[C@@H](CO)C(=O)N[C@H](CCCCN)C(=O)N[C@H](CCCNC(N)=O)C(=O)N[C@@H](CC(C)C)C(=O)N[C@@H](CCCNC(=N)N)C(=O)N1CCC[C@H]1C(=O)N[C@H](C)C(N)=O [Compound 1] (Ac-[d2Nal][dPhe(4-Cl)][d3Pal]S[dK][dCit]LRP[dA]-NH2)

Row | SMILES | IC50 [nM]
11 | CCNC(=NCCCC[C@@H](NC(=O)[C@@H](CCCCNC(=O)CCC(=O)O[C@@H](C(=O)O[C@H]1C[C@@]2(O)[C@@H](OC(=O)c3ccccc3)[C@@H]3[C@]4(OC(C)=O)CO[C@@H]4C[C@H](O)[C@@]3(C)C(=O)[C@H](OC(C)=O)C(=C1C)C2(C)C)[C@@H](NC(=O)c1ccccc1)c1ccccc1)NC(=O)[C@H](CO)NC(=O)[C@@H](Cc1cccnc1)NC(=O)[C@@H](Cc1ccc(Cl)cc1)NC(=O)[C@@H](Cc1ccc2ccccc2c1)NC(C)=O)C(=O)N[C@@H](CC(C)C)C(=O)N[C@H](CCCCN=C(NCC)NCC)C(=O)N1CCC[C@H]1C(=O)N[C@H](C)C(N)=O)NCC [Compound 7] (Ac-[d2Nal][dPhe(4-Cl)][d3Pal]S[dK](Paclitaxel(2'-O-succinyl))[d(hArg(Et2))]L[d(hArg(Et2))]P[dA]-NH2) | > 100
12 | COc1cc2cc(c1Cl)N(C)C(=O)C[C@H](OC(=O)[C@H](C)N(C)C(=O)CCSC(=O)OC[C@H]1[C@@H]3CCc4c(nnn4CCCC[C@@H](NC(=O)[C@H](Cc4ccc(O)cc4)NC(=O)[C@H](CO)NC(=O)[C@@H](Cc4cccnc4)NC(=O)[C@@H](Cc4ccc(Cl)cc4)NC(=O)[C@@H](Cc4ccc5ccccc5c4)NC(C)=O)C(=O)N[C@@H](CC(C)C)C(=O)N[C@@H](CCCNC(=N)N)C(=O)N4CCC[C@H]4C(=O)N[C@H](C)C(N)=O)CC[C@@H]31)[C@]1(C)O[C@H]1C(C)[C@@H]1C[C@@](O)(NC(=O)O1)[C@H](OC)/C=C/C=C(\C)C2 (stereo partly shown) [Compound 20] | 0.1 to 1
13 | COc1cccc2c1C(=O)c1c(O)c3c(c(O)c1C2=O)C[C@@](O)(C(=O)CO)C[C@@H]3O[C@H]1C[C@H](NC(=O)OCc2ccc(NC(=O)[C@H](C)NC(=O)[C@@H](NC(=O)c3ccc(COCCOCCOCCn4nnc5c4CC[C@H]4[C@@H](CC5)[C@@H]4COC(=O)NCCCC[C@@H](NC(=O)[C@H](Cc4ccc(O)cc4)NC(=O)[C@H](CO)NC(=O)[C@@H](Cc4cccnc4)NC(=O)[C@@H](Cc4ccc(Cl)cc4)NC(=O)[C@@H](Cc4ccc5ccccc5c4)NC(C)=O)C(=O)N[C@@H](CC(C)C)C(=O)N[C@@H](CCCNC(=N)N)C(=O)N4CCC[C@H]4C(=O)N[C@H](C)C(N)=O)cc3)C(C)C)cc2)[C@H](O)[C@H](C)O1 [Compound 17] | 0.1 to 1
